# Data taken from patent publication US20250090538A1, “TLR7/8-ANTAGONIST FOR TREATING SJÖGREN'S SYNDROME OR MIXED CONNECTIVE TISSUE DISEASE” (Novartis AG, priority 2022, published 2025).
# “Also recorded” adds a separate entry of the source.
# Experiments:
# TLR7 and TLR8 = assay: Selectivity for TLR7 and TLR8 over other TLRs and the IL-1 receptor on human PBMCs; format: cell-based
# [1] = First-in-human study, pharmacokinetics in healthy volunteers (plasma concentration; SAD, MAD, food effect); format: in vivo; details: for increase of exposure (plasma concentration) with dose: healthy volunteers
# Description: (§1) A first-in-human (FIH) study was conducted to assess the safety and tolerability, pharmacokinetics (PK) and pharmacodynamics (PD) of single and multiple doses of compound of Formula (I) as twice daily (bid) oral administration in healthy volunteers, to support further clinical development of compound of Formula (I) in autoimmune diseases. This study also explored the effect of food intake.
# (§2) First-in-human study in healthy volunteers (HVs) included the following: • Part A was a randomized, subject-blinded, placebo-controlled, single ascending dose (SAD) study with 10 cohorts. Each cohort received in an ascending order a 1 mg, 3 mg, 10 mg, 20 mg, 40 mg, 80 mg, 160 mg, 320 mg, 640 mg or 1000 mg single dose of compound of Formula (I). • Part B was a randomized, subject-blinded, placebo-controlled, multiple ascending dose (MAD) study with 5 cohorts. Each cohort received in an ascending order a 25 mg, 50 mg, 100 mg, 200 mg or 400 mg dose of compound of Formula (I) b.i.d. for 14 days. • Part C was a randomized, open-label, two-sequence, two-period crossover study with a 200 mg dose of compound of Formula (I) administered each underfed or fasted condition, for the food effect evaluation.
# [2] = First-in-human study, safety and tolerability in healthy volunteers; format: in vivo; details: healthy subjects
# Description: as §1, §2
# TLR7 = molecular target: T1, TLR7 (Homo sapiens, UniProt Q9NYK1); assay: Ex-vivo stimulation of whole blood from SAD and MAD cohorts with a TLR7/8 agonist, B cell activation (CD69); format: cell-based
# T1 construct: endogenous in cells; host or cells: B cells in whole blood of healthy human subjects (SAD and MAD cohorts)
# T1 sequence (Q9NYK1 27-1049): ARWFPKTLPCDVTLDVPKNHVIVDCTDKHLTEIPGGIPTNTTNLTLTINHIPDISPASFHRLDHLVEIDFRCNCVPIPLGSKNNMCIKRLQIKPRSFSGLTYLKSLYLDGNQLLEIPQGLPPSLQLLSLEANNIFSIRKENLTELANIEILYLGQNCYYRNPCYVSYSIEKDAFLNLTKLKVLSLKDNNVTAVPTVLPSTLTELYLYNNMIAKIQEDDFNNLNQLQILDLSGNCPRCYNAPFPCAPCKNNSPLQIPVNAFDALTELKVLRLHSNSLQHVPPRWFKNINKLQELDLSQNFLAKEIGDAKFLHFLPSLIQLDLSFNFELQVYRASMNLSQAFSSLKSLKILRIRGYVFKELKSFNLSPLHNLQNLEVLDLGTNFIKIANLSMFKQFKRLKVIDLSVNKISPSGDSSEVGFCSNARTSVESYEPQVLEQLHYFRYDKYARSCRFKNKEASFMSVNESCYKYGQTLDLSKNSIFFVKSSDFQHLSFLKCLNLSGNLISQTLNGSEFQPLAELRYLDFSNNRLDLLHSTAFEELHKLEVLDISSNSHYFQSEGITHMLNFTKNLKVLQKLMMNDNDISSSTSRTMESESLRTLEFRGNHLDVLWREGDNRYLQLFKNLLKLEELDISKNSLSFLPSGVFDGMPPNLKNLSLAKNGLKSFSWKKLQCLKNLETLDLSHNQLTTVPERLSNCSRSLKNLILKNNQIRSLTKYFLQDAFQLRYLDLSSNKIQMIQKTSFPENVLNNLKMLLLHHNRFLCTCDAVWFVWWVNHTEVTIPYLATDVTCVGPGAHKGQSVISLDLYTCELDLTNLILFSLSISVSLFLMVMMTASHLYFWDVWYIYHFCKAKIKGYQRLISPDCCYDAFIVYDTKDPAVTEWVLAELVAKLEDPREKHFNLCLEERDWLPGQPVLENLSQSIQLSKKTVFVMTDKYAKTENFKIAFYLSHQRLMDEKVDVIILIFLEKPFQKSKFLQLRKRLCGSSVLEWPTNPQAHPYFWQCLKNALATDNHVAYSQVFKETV
# Source text: (§3) CD69 and TNF are biomarkers intended to inform the pharmacodynamic (PD) effect of compound of Formula (I). Whole blood samples from the SAD and MAD cohorts were ex-vivo stimulated with a TLR7/8 agonist to increase levels of CD69 and TNF.
# TLR8 = molecular target: T2, TLR8 (Homo sapiens, UniProt Q9NR97); assay: Ex-vivo stimulation of whole blood from SAD and MAD cohorts with a TLR7/8 agonist, monocyte TNF production; format: cell-based
# T2 construct: endogenous in cells; host or cells: monocytes in whole blood of healthy human subjects (SAD and MAD cohorts)
# T2 sequence (Q9NR97 27-1041): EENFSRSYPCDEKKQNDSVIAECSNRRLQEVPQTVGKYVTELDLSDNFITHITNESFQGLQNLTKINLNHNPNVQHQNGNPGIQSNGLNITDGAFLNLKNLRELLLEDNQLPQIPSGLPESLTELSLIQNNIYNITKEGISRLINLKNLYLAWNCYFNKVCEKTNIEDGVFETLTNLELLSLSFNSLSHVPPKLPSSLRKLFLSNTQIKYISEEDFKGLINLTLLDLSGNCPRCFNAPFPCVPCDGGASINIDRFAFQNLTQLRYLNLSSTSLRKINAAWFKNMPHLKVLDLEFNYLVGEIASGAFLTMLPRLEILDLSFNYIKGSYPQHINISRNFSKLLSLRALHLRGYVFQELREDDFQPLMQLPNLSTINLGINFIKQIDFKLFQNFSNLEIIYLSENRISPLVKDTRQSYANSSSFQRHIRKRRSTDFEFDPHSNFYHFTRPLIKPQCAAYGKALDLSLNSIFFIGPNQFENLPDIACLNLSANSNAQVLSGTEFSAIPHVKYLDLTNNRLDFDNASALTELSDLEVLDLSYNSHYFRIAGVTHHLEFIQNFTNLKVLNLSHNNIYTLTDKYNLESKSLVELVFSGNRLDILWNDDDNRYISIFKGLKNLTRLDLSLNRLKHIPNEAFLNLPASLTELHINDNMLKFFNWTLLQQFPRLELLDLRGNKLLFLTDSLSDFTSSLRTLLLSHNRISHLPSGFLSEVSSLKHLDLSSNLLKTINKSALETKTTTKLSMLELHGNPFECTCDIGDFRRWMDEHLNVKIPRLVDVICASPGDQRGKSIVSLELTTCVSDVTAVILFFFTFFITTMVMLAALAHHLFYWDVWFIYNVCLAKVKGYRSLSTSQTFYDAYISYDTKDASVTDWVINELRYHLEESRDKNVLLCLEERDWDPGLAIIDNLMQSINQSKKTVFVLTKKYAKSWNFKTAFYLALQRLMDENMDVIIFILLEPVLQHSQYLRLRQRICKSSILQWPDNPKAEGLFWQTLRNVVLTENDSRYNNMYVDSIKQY
# Source text: as §3
# [3] = 200 mg b.i.d. for 14 days, FIH study
# [4] = ex-vivo stimulated whole blood, across the dose range (SAD and MAD)
smiles,measurement,setting,value
"Cc1cc(N2CCc3c(c(C)nn3CC34CCC(NC(=O)[C@@H]5COCCN5)(CC3)CC4)C2)c2cnn(C)c2n1 [compound of Formula (I), (S)-N-(4-((5-(1,6-dimethyl-1H-pyrazolo[3,4-b]pyridin-4-yl)-3-methyl-4,5,6,7-tetrahydro-1H-pyrazolo[4,3-c]pyridin-1-yl)methyl)bicyclo[2.2.2]octan-1-yl)morpholine-3-carboxamide]",selectivity for TLR7 and TLR8 over other TLRs and the IL-1 receptor,TLR7 and TLR8,highly selective
same,Cmax timing under fed condition,"[1]; 200 mg dose, fed condition, FIG. 3",slightly delayed Cmax
same,food effect on exposure,"[1]; 200 mg dose, fed vs fasted crossover, FIG. 3",No relevant food effect
same,increase of exposure (plasma concentration) with dose,"[1]; multiple ascending dose b.i.d. for 14 days, FIG. 2",dose-proportional at steady state for the lower doses
same,half-life,"[1]; plasma, oral, human, FIH study, maximum value, read-out: terminal half-life",≤ 14.4 h
same,increase of exposure (plasma concentration) with dose,"[1]; single ascending dose, oral, FIG. 1",dose-proportional for the higher doses
same,safety and tolerability,[2]; multiple administrations of up to 400 mg b.i.d. for 14 days,safe and well tolerated; also recorded: safe and well-tolerated
same,safety and tolerability,[2]; single oral administration of up to 1000 mg,safe and well tolerated; also recorded: safe and well-tolerated
same,TLR7 pathway inhibition,TLR7; [3],full pathway inhibition
same,B cell activation (upregulation of CD69) following TLR7 stimulation,TLR7; [4],inhibited B cell activation
same,TLR8 pathway inhibition,TLR8; [3],full pathway inhibition
same,activation of human monocytes to produce TNF following TLR8 stimulation,TLR8; [4],inhibited activation of human monocytes to produce TNF
